{
  "source": "patent US20250129012A1",
  "about": "“ANTI-INFLAMMATORY AND ANALGESIC COMPOUNDS AND USE THEREOF” (JIANGSU ATOM BIOSCIENCE AND PHARMACEUTICAL CO., LTD., priority 2021, published 2025)",
  "key": {"IL-6": {"system": "IL-6", "test": "Inflammatory factor experiment B: IL-6 in knee synovial tissue (ELISA)", "format": "in vivo, SD rats", "details": "Rattus norvegicus, po, 48 h, read-out: IL-6 percentage decrease %"}, "IL-1β": {"system": "IL-1β", "test": "Inflammatory factor experiment B: IL-1β in knee synovial tissue (ELISA)", "format": "in vivo, SD rats", "details": "for inhibition in vivo at 0.6 mg/kg: Rattus norvegicus, po, 48 h, read-out: IL-1β percentage decrease %"}, "TNF-α": {"system": "TNF-α", "test": "Inflammatory factor experiment B: TNF-α in knee synovial tissue (ELISA)", "format": "in vivo, SD rats", "details": "for inhibition in vivo at 0.6 mg/kg: Rattus norvegicus, po, 48 h, read-out: TNF-α percentage decrease %"}, "[1]": {"system": "gouty arthritis rats (sodium urate, right ankle and knee joint cavities)", "test": "Pharmacodynamics experiment B on gouty arthritis rats: ankle swelling rate", "format": "in vivo, SD rats", "details": "dose 0.6 mg/kg gavage", "description": "(§1) Compounds 12, 16, 19, 30, 34, 36, 38, 40, 44, 48, 49, 52, 58, 69, 83, 98, 102, 119, 121, and 122 were prepared by grinding with 0.5% CMC-Na prior to administration and formulated into suspensions of appropriate concentration (0.12 mg/mL) for gavage, with an administered dose of 0.5 mL/100 g.\n(§2) 240 SD rats, males, were acclimatized for one week and weighed 180-220 g. […] The dose of each compound group was 0.6 mg/kg. The compounds in each group were prepared into the corresponding concentration suspension, and the volume of administration was 10 mL/kg.\n(§3) 250 mg of sodium urate were added to 9 mL of saline, and 1 mL of Tween-80 solution was added, the resulting mixture was heated and stirred to formulate 10 mL of sodium urate solution. The rats were grasped and fixed, and 0.2 mL of sodium urate solution was injected into the right ankle and knee joint cavities respectively to establish gouty arthritis rat model.\n(§4) Before modeling, positive drug and tested compounds were pre-administered for 7 days, once a day, and modeling was performed on day 8, and drug administration by gavage continued for 3 days after modeling.\nBefore modeling and 2 h, 4 h, 8 h, 10 h, 24 h and 48 h after modeling, the circumference of the right ankle joint was measured using a soft ruler or the volume change at the ankle was measured (volumetric method), and the swelling degree and swelling rate of ankle joint were calculated:\nSwelling degree (mm)=measured circumference (mm)−baseline circumference (mm)\nSwelling rate (%)=swelling degree (mm)/baseline circumference (mm)×100%\n(§5) Each experimental data was expressed as the mean, and intergroup comparisons were examined for significance using the ANOVA-Dunnett T-test, with P<0.05 as the significance indicator."}, "[2]": {"test": "In vivo pharmacokinetics in SD rats", "description": "Compound stock solution preparation: an appropriate amount of solid powder of the compounds were weighed separately, a certain amount of DMSO was added and 20 mg/mL of stock solution was obtained under vortex ultrasound.\nPreparation of test compound for gavage: an appropriate amount of compound stock solution was taken by pipette, a certain amount of Solutol HS15 solution was added, the mixture was vortexed for 1 minute, then a certain amount of saline was added, and 1 mg/mL of solution was obtained after mixing well.\nPreparation of test compounds for intravenous injection: an appropriate amount of compound stock solution was taken by pipette separately, a certain amount of Solutol HS15 solution was added, the mixture was vortexed for 1 minute, then a certain amount of physiological saline was added and a solution of 0.5 mg/mL was obtained after mixing well.\nThe animals were fasted overnight before administration by gavage, and food was given 4 hours after administration, during which they were free to drink. Two groups were set for each test compound, intravenous injection group and oral administration group, and the dose and mode of administration were shown in Table 12 below.\nThe blood samples were centrifuged at 4° C. for 5 min at 2,000 g to separate the plasma. The plasma samples were analyzed by LC/MS/MS to detect the concentration of each test compound in the plasma samples.\nThe parameters related to the […] were obtained by calculations with WinNonlin® Professional software."}, "[3]": {"system": "gouty arthritis rats (sodium urate, right ankle and knee joint cavities)", "test": "Pharmacodynamics experiment B on gouty arthritis rats: gait score", "format": "in vivo, SD rats", "details": "dose 0.6 mg/kg gavage, mean", "description": "as §1, §2, §3, §4\nGait was scored according to the modified gait grading criteria introduced by Coderre et al. The gait of each rat was observed before and 2 h, 4 h, 8 h, 10 h, 24 h and 48 h after modeling and graded scoring was performed. The gait grading criteria were as follows: 0 point, normal walking; 1 point, slight lameness, the lower limbs were slightly bent; 2 points: moderate lameness, the lower limbs just touched the ground; 3 points, severe lameness, the lower limbs left the ground, and walked on three feet. The mean score of each group was calculated and compared with that of the model group.\nas §5"}, "[4]": {"details": "synovial tissue of knee joints, 48 h after modeling, dose 0.6 mg/kg"}, "[5]": {"details": "Intravenous injection - 1 mg/kg"}},
  "note": "Marks after values point to notes of the source that are not given here.",
  "data": [
    {"smiles": "COc1cc2c(c(OC)c1OC)-c1ccc(-n3ccnc3)c(=O)cc1[C@@H](NC(C)=O)CC2", "note": "[Compound 97, (S)—N-{10-(1H-imidazol-1-yl)-1,2,3-trimethoxy-9-oxo-5,6,7,9-tetrahydrobenzo[a]heptalen-7-yl}acetamide]", "values": [
      {"measurement": "inhibition in vivo at 0.6 mg/kg", "setting": "IL-6", "result": 97.8, "unit": "%"},
      {"measurement": "inhibition in vivo at 0.6 mg/kg", "setting": "IL-1β", "result": 20.2, "unit": "%"},
      {"measurement": "inhibition in vivo at 0.6 mg/kg", "setting": "TNF-α", "result": 92, "unit": "%"}
    ]},
    {"smiles": "COc1cc2c(c(OC)c1OC)-c1ccc(-n3ccnn3)c(=O)cc1[C@@H](NC(C)=O)CC2", "note": "[Compound 99, (S)—N-(1,2,3-trimethoxy-9-oxo-10-(1H-1,2,3-triazol-1-yl)-5,6,7,9-tetrahydrobenzo[a]heptalen-7-yl)acetamide]", "values": [
      {"measurement": "inhibition in vivo at 0.6 mg/kg", "setting": "IL-6", "result": 79.6, "unit": "%"},
      {"measurement": "inhibition in vivo at 0.6 mg/kg", "setting": "IL-1β", "result": 66.4, "unit": "%"},
      {"measurement": "inhibition in vivo at 0.6 mg/kg", "setting": "TNF-α", "result": 91.7, "unit": "%"}
    ]},
    {"smiles": "COc1cc2c(c(OC)c1OC)-c1ccc(-n3nccn3)c(=O)cc1[C@@H](NC(C)=O)CC2", "note": "[Compound 100, (S)—N-(1,2,3-trimethoxy-9-oxo-10-(2H-1,2,3-triazol-2-yl)-5,6,7,9-tetrahydrobenzo[a]heptalen-7-yl)acetamide]", "values": [
      {"measurement": "inhibition in vivo at 0.6 mg/kg", "setting": "IL-6", "result": 169, "unit": "%"},
      {"measurement": "inhibition in vivo at 0.6 mg/kg", "setting": "IL-1β", "result": 65.2, "unit": "%"},
      {"measurement": "inhibition in vivo at 0.6 mg/kg", "setting": "TNF-α", "result": 120, "unit": "%"}
    ]},
    {"smiles": "COC(=O)c1ccc2c(cc1=O)[C@@H](N1CCCCC1=O)CCc1cc(OC)c(OC)c(OC)c1-2", "note": "[Compound 108, methyl (S)-1,2,3-trimethoxy-9-oxo-7-(2-oxopiperidin-1-yl)-5,6,7,9-tetrahydrobenzo[a]heptalen-10-carboxylate]", "values": [
      {"measurement": "inhibition in vivo at 0.6 mg/kg", "setting": "IL-6", "result": 207, "unit": "%"},
      {"measurement": "inhibition in vivo at 0.6 mg/kg", "setting": "IL-1β", "result": 92.7, "unit": "%"},
      {"measurement": "inhibition in vivo at 0.6 mg/kg", "setting": "TNF-α", "result": 104, "unit": "%"}
    ]},
    {"smiles": "CCNS(=O)(=O)N[C@H]1CCc2cc(OC)c(OC)c(OC)c2-c2ccc(C(=O)OC)c(=O)cc21", "note": "[Compound 112]", "values": [
      {"measurement": "inhibition in vivo at 0.6 mg/kg", "setting": "IL-6", "result": 165, "unit": "%"},
      {"measurement": "inhibition in vivo at 0.6 mg/kg", "setting": "IL-1β", "result": 92, "unit": "%"},
      {"measurement": "inhibition in vivo at 0.6 mg/kg", "setting": "TNF-α", "result": 97.8, "unit": "%"}
    ]},
    {"smiles": "[2H]C([2H])([2H])Oc1c(OC)cc2c(c1OC)-c1ccc(C(=O)NC)c(=O)cc1[C@@H](NC(C)=O)CC2", "note": "[Compound 122, (S)-7-acetamido-1,3-dimethoxy-2-trideutero-methoxy-N-methyl-9-oxo-5,6,7,9-tetrahydrobenzo[a]heptalen-10-carboxamide]", "values": [
      {"measurement": "IL-1β percentage decrease %", "setting": "IL-1β; [4]", "result": 86.87, "unit": "%"},
      {"measurement": "TNF-α percentage decrease %", "setting": "TNF-α; [4]", "result": 98.89, "unit": "%"},
      {"measurement": "Swelling rate (ankle)", "setting": "[1]; 2 h", "result": 7.9, "unit": "%**"},
      {"measurement": "Swelling rate (ankle)", "setting": "[1]; 4 h", "result": 12.1, "unit": "%**"},
      {"measurement": "Swelling rate (ankle)", "setting": "[1]; 8 h", "result": 15.8, "unit": "%**"},
      {"measurement": "Swelling rate (ankle)", "setting": "[1]; 10 h", "result": 15.3, "unit": "%**"},
      {"measurement": "Swelling rate (ankle)", "setting": "[1]; 24 h", "result": 12.5, "unit": "%**"},
      {"measurement": "Swelling rate (ankle)", "setting": "[1]; 48 h", "result": 4.7, "unit": "%**"},
      {"measurement": "AUCINF", "setting": "[2]; Gavage - 10 mg/kg", "result": 3129, "unit": "ng·h/mL"},
      {"measurement": "Cmax", "setting": "[2]; Gavage - 10 mg/kg", "result": 1153, "unit": "ng/mL"},
      {"measurement": "MRTINF", "setting": "[2]; Gavage - 10 mg/kg", "result": 2.47, "unit": "h"},
      {"measurement": "Tmax", "setting": "[2]; Gavage - 10 mg/kg", "result": 0.250, "unit": "h"},
      {"measurement": "t1/2", "setting": "[2]; Gavage - 10 mg/kg", "result": 1.79, "unit": "h"},
      {"measurement": "F", "setting": "[2]; Gavage - 10 mg/kg, calculated by AUCINF", "result": 50.1, "unit": "%"},
      {"measurement": "AUCINF", "setting": "[2]; [5]", "result": 624, "unit": "ng·h/mL"},
      {"measurement": "CL", "setting": "[2]; [5]", "result": 27.2, "unit": "mL/min/kg"},
      {"measurement": "MRTINF", "setting": "[2]; [5]", "result": 1.34, "unit": "h"},
      {"measurement": "VSS", "setting": "[2]; [5]", "result": 1.99, "unit": "L/kg"},
      {"measurement": "t1/2", "setting": "[2]; [5]", "result": 1.57, "unit": "h"},
      {"measurement": "Gait Score", "setting": "[3]; 0 h", "result": 0},
      {"measurement": "Gait Score", "setting": "[3]; 2 h", "result": 0},
      {"measurement": "Gait Score", "setting": "[3]; 4 h", "result": 0.2},
      {"measurement": "Gait Score", "setting": "[3]; 8 h", "result": 0.1},
      {"measurement": "Gait Score", "setting": "[3]; 10 h", "result": 0.2},
      {"measurement": "Gait Score", "setting": "[3]; 24 h", "result": 0.1},
      {"measurement": "Gait Score", "setting": "[3]; 48 h", "result": 0}
    ]}
  ]
}
